Experimental data published in patent US11882834B2, “Microbiocidal thiazole derivatives” (SYNGENTA PARTICIPATIONS AG, priority 2017, dated 2024).

Experiments:
[1] = test system: Mycosphaerella arachidis (Cercospora arachidicola); assay: Mycosphaerella arachidis (Cercospora arachidicola) / liquid culture (early leaf spot); format: cell-based; details: 200 ppm in the formulation; liquid culture (PDB), growth determined photometrically 4-5 days after application; compared to untreated
Procedure: Mycosphaerella arachidis (Cercospora arachidicola)/Liquid Culture (Early Leaf Spot) Conidia of the fungus from cryogenic storage are directly mixed into nutrient broth (PDB potato dextrose broth). After placing a (DMSO) solution of test compound into a microtiter plate (96-well format), the nutrient broth containing the fungal spores is added. The test plates are incubated at 24° C. and the inhibition of growth is determined photometrically 4-5 days after application.

[2] = test system: Phaeosphaeria nodorum (Septoria nodorum); assay: Phaeosphaeria nodorum (Septoria nodorum) / wheat / leaf disc preventative (glume blotch); format: in vivo; details: 200 ppm in the formulation, wheat leaf segments cv. Kanzler, compared to untreated, 5-7 days after application
Procedure: Phaeosphaeria nodorum (Septoria nodorum)/Wheat/Leaf Disc Preventative (Glume Blotch) Wheat leaf segments cv. Kanzler are placed on agar in a multiwell plate (24-well format) and sprayed with the formulated test compound diluted in water. The leaf disks are inoculated with a spore suspension of the fungus 2 days after application. The inoculated test leaf disks are incubated at 20° C. and 75% rh under a light regime of 12 h light/12 h darkness in a climate cabinet and the activity of a compound is assessed as percent disease control compared to untreated when an appropriate level of disease damage appears in untreated check leaf disks (5-7 days after application).

For Cc1sc(Nc2cc(F)nc(F)c2)nc1C(=O)NC1CCC1(C)C (centres unmarked) [Compound I.r.19, 2-[(2,6-difluoro-4-pyridyl)amino]-N-(2,2-dimethylcyclobutyl)-5-methyl-thiazole-4-carboxamide], the disease control [1] was “at least 80%” and the disease control [2] was “at least 80%”.
